Patent US20250034165A1, “COMPOUND CONTAINING CYCLOALKYL OR HALOALKYL” (CHIA TAI TIANQING PHARMACEUTICAL GROUP CO., LTD., priority 2021, published 2025)
Read-outs that look alike come from different tables or passages of the source.

Key:
[1] = tested on: PC-9 EGFR-Del19-T790M-C797S cells; experiment: Inhibition of proliferation of PC-9-EGFR (Del19 T790M C797S) cells, CCK-8; type: cell-based; details: 72 h, read-out: PC-9-EGFR (Del19 T790M C797S) cell inhibitory activity IC50
Protocol: PC-9 EGFR-Del19-T790M-C797S cells in the logarithmic growth phase and good conditions were taken, washed with PBS, digested with pancreatin, terminated with a complete medium, collected and added to a centrifuge tube, adjusted to a cell density of 2×10^4 cells/mL, and seeded in a 96-well plate (100 μL/well). Meanwhile, compounds were loaded using a nanoliter pipettor resulting in the final concentrations of the compounds of 1000 nM-0.06 nM, and a control was set, replicate wells for each concentration. After 72 h of incubation in the cell incubator, the assay reagent CCK-8 (manufacturer: Dojindo Laboratories, Beijing; 10 μL/well) was added. After 2 h of incubation in the cell incubator, absorbance was measured at 450 nm on a PerkinElmer Envision microplate reader, and the inhibition rate was calculated.
(§1) Inhibition rate (%)=(mean value of negative control group-mean value of experimental group)/(mean value of negative control group−mean value of blank group)×100%.
(§2) A dose-response curve was fitted by four-parameter analysis, with the logarithm of compound concentration serving as abscissa and inhibition rate serving as ordinate, such that IC50 was calculated.

[2] = molecular target: EGFR (d746-750/T790M/C797S) (Homo sapiens (Human), UniProt P00533, C797S/DEL746-750/T790M); experiment: Inhibitory activity for EGFR (d746-750/T790M/C797S) kinase; type: biochemical; details: ATP 5 μM; read-out: EGFR(d19/T790M/C797S) (IC50)
Protocol: 1.5 Screening for Inhibitory Activity for EGFR (d746-750/T790M/C797S) Kinase
(§3) A 50 ng/μL EGFR (d746-750/T790M/C797S, BPS) stock solution was diluted with a kinase buffer (50 mM HEPES, 10 mM MgCl2, 2 mM DTT, 1 mM EGTA, 0.01% Tween 20), and 6 μL of 1.67× working solution at 0.05 ng/μL (final concentration: 0.03 ng/μL) was added to each well. Different compounds dissolved in DMSO were added to the wells using a nanoliter pipettor, resulting in the final concentrations of the compounds of 10 nM to 0.0024 nM (4-fold gradient for 7 concentrations in total), and blank control wells (without enzyme) and negative control wells (with enzyme, plus vehicle DMSO) were set, 2 replicate wells for each concentration. After enzyme was reacted with the compound or vehicle for 30 min, 5×ATP at 25 μM (final concentration: 5 μM, Sigma) prepared with a kinase buffer was mixed with 5× substrate at 0.5 μM (final concentration: 0.1 μM, ULight-poly GT, PerkinElmer) at a ratio of 1:1 (v:v), and the mixture was added to each well at 4 μL/well. After being sealed with a film, the plate was incubated at room temperature for 2 h, and then 5 μL of 4×EDTA at 40 mM (final concentration: 10 mM) was added to each well. After the plate was incubated for 5 min at room temperature, 5 μL of 4× detection reagent at 8 nM (final concentration: 2 nM, Eu-anti-phospho-tyrosine antibody, PerkinElmer) was added to each well. After being incubated at room temperature for 1 h, the plate was read using a PerkinElmer Envision multi-mode microplate reader (excitation: 320 nm, emission: 665 nm), and IC50 was calculated by four-parameter fitting.

[3] = tested on: BAF3-EGFR (L858R/T790M/C797S) cells; experiment: Inhibition of proliferation of BAF3-EGFR (L858R/T790M/C797S) cells, CCK-8; type: cell-based; details: Ba/F3 EGFR, 72 h, read-out: BAF3(EGFR T790M L858R C797S) cell inhibitory activity IC50
Protocol: (§4) A flask of EGFR (L858R/T790M/C797S) cells in the logarithmic growth phase and good conditions was taken, and the cells were collected and added to a centrifuge tube. 20 μL of cells were taken and counted, and the required number of cells (mL) was pipetted and centrifuged at 1200 rpm for 3 min. The supernatant was discarded, and an appropriate amount of plating medium (RPMI medium+10% FBS) was added to adjust the cell density to 1.5×10^5 cells/mL. The cells were seeded on a 96-well plate at 100 μL/well using a multi-channel pipette and cultured in a cell incubator at 37° C., 5% CO2 with saturated humidity. After overnight incubation, compounds were loaded using a nanoliter pipettor, 2 duplicate wells were set for each concentration, and cells without compound added were used as negative controls.
as §1, §2

[4] = tested on: BAF3-EGFR (del19/T790M/C797S) cells; experiment: Inhibition of proliferation of BAF3-EGFR (Del19/T790M/C797S) cells, CCK-8; type: cell-based; details: Ba/F3 EGFR-Del19/T790M/C797S, 72 h, read-out: BAF3(EGFR T790M Del19 C797S) cell inhibitory activity IC50
Protocol: as §4, with “BAF3-EGFR (del19/T790M/C797S)” for “EGFR (L858R/T790M/C797S)”, “1.0×10^5” for “1.5×10^5”
as §1, §2

[5] = molecular target: EGFR (d746-750 (d19)/T790M) (Homo sapiens (Human), UniProt P00533, DEL746-750/T790M); experiment: Inhibitory activity for EGFR (d746-750 (d19)/T790M) kinase; type: biochemical; details: ATP 5 μM
Protocol: 1.3 Screening for Inhibitory Activity for EGFR (d746-750 (d19)/T790M) Kinase
as §3, with “(d746-750/T790M, Carna)” for “(d746-750/T790M/C797S, BPS)”, “0.005” for “0.05”, “0.003” for “0.03”

[6] = In vivo pharmacokinetics in ICR mice; details: for AUC(0-inf) / AUC(0-t) / MRT last / half-life / bioavailability / Cmax / Tmax: mouse, plasma; for AUC(0-t): read-out: AUC(0-t); for MRT last: read-out: MRT(0-t); for half-life: read-out: T½ (converted); for bioavailability: 10 mg/kg, PO vs IV; for Cmax: read-out: Cmax; for Tmax: read-out: Tmax
Protocol: The animals to be tested (ICR mice) were fasted for 12 h before administration and food was provided 4 h after administration, and water was freely drunk before and after the experiment and during the experiment.
After intragastric administration, about 0.1 mL of blood was collected from the orbit at 0 min, 15 min, 30 min, 1 h, 2 h, 4 h, 6 h, 8 h, 10 h, and 24 h. After anticoagulation with EDTA-K2, blood samples were transferred to a centrifuge within 30 min, and centrifuged at 4000 rpm for 10 min at 4° C. to separate the plasma. All the plasma samples were collected and immediately stored at −20° C. for testing.
300 μL of acetonitrile solution containing an internal standard ([…] diazepam) was added to 20 μL of the plasma sample to be tested and a standard curve sample. The mixture was shaken and homogeneously mixed for 5 min, and centrifuged at 12,000 rpm for 10 min. 70 μL of supernatant was taken and diluted with 70 μL of ultrapure water. After being mixed well, 2 μL of the resulting sample was subjected to LC/MS/MS, and a chromatogram was recorded.

EGFR (d746-750/T790M/C797S), sequence (P00533 other isoform, or with tags, fused parts or gaps T790M/C797S/del 1-694/del 746-750 limits assumed): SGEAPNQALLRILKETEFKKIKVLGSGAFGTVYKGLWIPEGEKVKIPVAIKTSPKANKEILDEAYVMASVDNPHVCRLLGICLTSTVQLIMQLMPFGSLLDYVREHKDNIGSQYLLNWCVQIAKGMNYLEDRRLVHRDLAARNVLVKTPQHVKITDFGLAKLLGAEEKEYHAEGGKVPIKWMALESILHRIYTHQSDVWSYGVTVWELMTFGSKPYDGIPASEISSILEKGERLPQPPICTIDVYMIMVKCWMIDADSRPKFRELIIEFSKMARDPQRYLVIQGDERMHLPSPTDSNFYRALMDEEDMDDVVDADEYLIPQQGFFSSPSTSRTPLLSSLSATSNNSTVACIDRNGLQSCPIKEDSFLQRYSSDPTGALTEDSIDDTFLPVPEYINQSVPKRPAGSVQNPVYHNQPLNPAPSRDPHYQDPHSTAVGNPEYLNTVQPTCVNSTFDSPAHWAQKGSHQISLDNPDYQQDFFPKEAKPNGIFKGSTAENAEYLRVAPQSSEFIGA
EGFR (d746-750 (d19)/T790M), sequence (P00533 other isoform, or with tags, fused parts or gaps T790M/del 1-668/del 746-750 limits assumed): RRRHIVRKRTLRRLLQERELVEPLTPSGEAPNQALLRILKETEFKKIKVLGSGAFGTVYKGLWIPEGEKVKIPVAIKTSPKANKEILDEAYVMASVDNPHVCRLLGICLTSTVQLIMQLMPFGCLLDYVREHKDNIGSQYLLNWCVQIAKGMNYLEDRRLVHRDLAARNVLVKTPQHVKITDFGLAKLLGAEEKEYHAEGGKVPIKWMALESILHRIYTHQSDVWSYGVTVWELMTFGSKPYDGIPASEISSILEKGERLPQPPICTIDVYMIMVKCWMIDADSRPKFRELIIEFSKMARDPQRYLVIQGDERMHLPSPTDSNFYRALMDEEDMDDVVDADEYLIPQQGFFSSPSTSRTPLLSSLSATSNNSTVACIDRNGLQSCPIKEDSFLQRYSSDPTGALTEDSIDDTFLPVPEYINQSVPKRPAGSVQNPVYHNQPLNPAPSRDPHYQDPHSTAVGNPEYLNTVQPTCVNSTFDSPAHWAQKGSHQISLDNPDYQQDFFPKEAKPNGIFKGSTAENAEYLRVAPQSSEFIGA

| Structure (SMILES) | IC50 [1] | IC50 [2] | IC50 [3] | also measured |
| --- | --- | --- | --- | --- |
| [2H]C([2H])([2H])N(C[C@H](C)Nc1ccc2c(c1)N1C[C@H](C3CC3)CCCOc3c(cnn3C)-c3cc(cc(C)n3)C(=O)/N=C/1N2)C([2H])([2H])[2H] [Example 123] | < 50 nM | 0.1 nM | < 5 nM |  |
| [2H]C([2H])([2H])N(C[C@@H](C)Nc1ccc2c(c1)N/C1=N\C(=O)c3cc(C)nc(c3)-c3cnn(C)c3OCCC[C@@H](C3CC3)CN12)C([2H])([2H])[2H] [Example 146] | < 50 nM | 0.074 nM | < 5 nM |  |
| CCC1(CNc2ccc3c(c2)N/C2=N\C(=O)c4cc(C)nc(c4)-c4cnn(C)c4OCCC[C@@H](C4CC4)CN23)COC1 [Example 92] |  |  | < 5 nM | IC50 [4]: < 1 nM |
| Cc1cc2cc(n1)-c1cnn(C)c1OCCC[C@@H](C1CC1)CN1/C(=N/C2=O)Nc2ccc(N[C@H]3CC[C@H](N(C)C)C3)cc21 [Example 136] | < 50 nM |  |  | IC50 [5]: 0.15 nM |
| Cc1cc2cc(n1)-c1cnn(C)c1OCCC[C@@H](C1CC1)CN1/C(=N/C2=O)Nc2cc(N[C@H]3CC[C@H](O)CC3)ccc21 [Example 151] | < 50 nM | 0.12 nM | < 5 nM |  |
| Cc1cc2cc(n1)-c1cnn(C)c1OCCC[C@@H](C1CC1)CN1/C(=N/C2=O)Nc2ccc(N[C@H]3C[C@H](N(C)C)C3)cc21 [Example 128] | < 50 nM |  |  | IC50 [5]: 0.13 nM; CLz ([6]; IV): 4.52 L/h/kg; AUC(0-inf) ([6]; 1 mg/kg, IV): 0.221 µg·h/mL; AUC(0-t) ([6]; 1 mg/kg, IV): 0.214 µg·h/mL; MRT last ([6]; 1 mg/kg, IV): 1.65 h; half-life ([6]; 1 mg/kg, IV): 2.17 h; bioavailability [6]: 30.5%; AUC(0-inf) ([6]; PO, 10 mg/kg intragastric): 0.662 µg·h/mL; AUC(0-t) ([6]; PO, 10 mg/kg intragastric): 0.654 µg·h/mL; Cmax ([6]; PO, 10 mg/kg intragastric): 0.0578 µg/mL; MRT last ([6]; PO, 10 mg/kg intragastric): 6.81 h; Tmax ([6]; PO, 10 mg/kg intragastric): 6 h; half-life ([6]; PO, 10 mg/kg intragastric): 3.46 h |
| Cc1cc2cc(n1)-c1cnn(C)c1OCCC[C@@H](C1CC1)CN1/C(=N/C2=O)Nc2ccc(NC3CC(N(C)C)C3)cc21 (stereo partly drawn) [Example 98] | < 50 nM |  | < 5 nM | IC50 [5]: 0.087 nM |
| [2H]C([2H])([2H])N(CCN(C)C)c1ccc2c(c1)N1C[C@H](C3CC3)CCCOc3c(cnn3C)-c3cc(cc(C)n3)C(=O)/N=C/1N2 [Example 116] | < 50 nM |  |  |  |
| Cc1cc2cc(n1)-c1cnn(C)c1OCCC[C@@H](C1CC1)CN1/C(=N/C2=O)Nc2ccc(N(C)C3CCN(C)CC3)cc21 [Example 117] | < 50 nM |  |  | IC50 [5]: 0.12 nM; CLz ([6]; IV): 3.49 L/h/kg; AUC(0-inf) ([6]; 1 mg/kg, IV): 0.286 µg·h/mL; AUC(0-t) ([6]; 1 mg/kg, IV): 0.284 µg·h/mL; MRT last ([6]; 1 mg/kg, IV): 3.3 h; half-life ([6]; 1 mg/kg, IV): 2.18 h; bioavailability [6]: 29.1%; AUC(0-inf) ([6]; PO, 10 mg/kg intragastric): 0.848 µg·h/mL; AUC(0-t) ([6]; PO, 10 mg/kg intragastric): 0.826 µg·h/mL; Cmax ([6]; PO, 10 mg/kg intragastric): 0.0771 µg/mL; MRT last ([6]; PO, 10 mg/kg intragastric): 6.79 h; Tmax ([6]; PO, 10 mg/kg intragastric): 6 h; half-life ([6]; PO, 10 mg/kg intragastric): 4.17 h |
| Cc1cc2cc(n1)-c1cnn(C)c1OCCC[C@@H](C1CC1)CN1/C(=N/C2=O)Nc2ccc(N(C)[C@@H](C)CN(C)C)cc21 [Example 85] | < 50 nM |  |  |  |

Second part, led by results:

| IC50 [1] | IC50 [2] | IC50 [3] | Structure (SMILES) | also measured |
| --- | --- | --- | --- | --- |
| < 50 nM | 0.076 nM | < 5 nM | Cc1cc2cc(n1)-c1cnn(C)c1OCCC[C@@H](C1CC1)CN1/C(=N/C2=O)Nc2cc(N[C@H](C)CCN3CCCCC3)ccc21 [Example 139] |  |
| < 50 nM | 0.079 nM | < 5 nM | Cc1cc2cc(n1)-c1cnn(C)c1OCCC[C@@H](C1CC1)CN1/C(=N/C2=O)Nc2ccc(N[C@H](C)CCN3CCCCC3)cc21 [Example 143] |  |
|  |  | < 5 nM | Cc1cc2cc(n1)-c1cnn(C)c1OCCC[C@@H](C1CC1)CN1/C(=N/C2=O)Nc2ccc(N[C@H](C)CN(C)C)cc21 [Example 65] | IC50 [4]: < 1 nM |
| < 50 nM | 0.072 nM | < 5 nM | Cc1cc2cc(n1)-c1cnn(C)c1OCCC[C@@H](C1CC1)CN1/C(=N/C2=O)Nc2ccc(N[C@H](C)CN3CCCCC3)cc21 [Example 141] |  |
| < 50 nM | 0.068 nM | < 5 nM | Cc1cc2cc(n1)-c1cnn(C)c1OCCC[C@@H](C1CC1)CN1/C(=N/C2=O)Nc2ccc(N[C@@H](C)CCN3CCCCC3)cc21 [Example 144] |  |
